From article PMC9490236, “Accurate de novo design of membrane-traversing macrocycles” (Cell, 2022)
Where a SMILES comes first, the peptide text is derived from it. [ ]: non-standard residue; d: D form. NMeF = CN[C@@H](Cc1ccccc1)C(=O)O; dNMeF = CN[C@H](Cc1ccccc1)C(=O)O; NMeL = CN[C@@H](CC(C)C)C(=O)O; dNMeL = CN[C@H](CC(C)C)C(=O)O; dNMeV = CN[C@@H](C(=O)O)C(C)C; NMeM = CN[C@@H](CCSC)C(=O)O; NMeA = CN[C@@H](C)C(=O)O; dNMeA = CN[C@H](C)C(=O)O; Sar = CNCC(=O)O

Experiments:
[1] = PAMPA
in vitro = settings: PAMPA, PAMPA_Papp_Avg

| Compound | PAMPA_R1 [1] | PAMPA_R3 [1] | Papp (in vitro) |
| --- | --- | --- | --- |
| CC(C)C[C@H]1NC(=O)[C@@H](C)NC(=O)[C@@H](C)NC(=O)[C@H]2CCCN2C(=O)[C@@H]2CCCN2C(=O)[C@H]2CCCN2C(=O)[C@@H](C)NC(=O)[C@@H](Cc2ccccc2)N(C)C(=O)[C@H]2CCCN2C(=O)[C@@H](CC(C)C)NC(=O)[C@@H](CC(C)C)NC1=O [Design D11.25, DLEU DPRO *DPHE DALA DPRO PRO DPRO DALA DALA DLEU DLEU] (cyclo([dP][dA][dA][dL][dL][dL][dP][dNMeF][dA][dP]P)) | 3.92E-07 | 3.97E-07 | 0.405 ×10⁻⁶ cm/s |
| CC[C@H](C)[C@@H]1NC(=O)[C@@H]2CCCN2C(=O)CN(C)C(=O)[C@@H](CC(C)C)NC(=O)[C@@H](CC(C)C)N(C)C(=O)[C@@H]2CCCN2C(=O)[C@H](Cc2ccccc2)N(C)C(=O)[C@@H](Cc2ccccc2)NC1=O [Design D8.15, PRO ILE DPHE*PHE PRO *DLEU DLEU *GLY] (cyclo(I[dF][NMeF]P[dNMeL][dL][Sar]P)) | 8.94E-07 | 9.27E-07 | 0.768 ×10⁻⁶ cm/s |
| CC(C)C[C@H]1NC(=O)[C@@H]2CCCN2C(=O)[C@H]2CCCN2C(=O)[C@H](C(C)C)NC(=O)[C@@H](CC(C)C)NC(=O)[C@@H]2CCCN2C(=O)[C@H]2CCCN2C(=O)[C@H](C(C)C)NC1=O (single isomer, unassigned) [D8.12 p1, DLEU VAL DPRO PRO DLEU VAL DPRO PRO] | 1.52E-07 | 1.92E-07 | 0.169 ×10⁻⁶ cm/s |
| CC(C)C[C@@H]1NC(=O)[C@H](C)NC(=O)[C@@H]2CCCN2C(=O)[C@H]2CCCN2C(=O)[C@H](Cc2ccccc2)NC(=O)[C@H]2CCCN2C(=O)[C@@H](Cc2ccccc2)N(C)C(=O)[C@@H]2CCCN2C(=O)[C@@H](C)NC(=O)[C@H](CC(C)C)NC1=O [Design D10.49, DALA PRO *DPHE DPRO PHE DPRO PRO ALA LEU LEU] (cyclo(ALL[dA]P[dNMeF][dP]F[dP]P)) | 2.36E-07 | 1.35E-07 | 0.17 ×10⁻⁶ cm/s |
| CC(C)C[C@H]1NC(=O)[C@H]2CCCN2C(=O)[C@H](CC(C)C)N(C)C(=O)[C@@H](C)N(C)C(=O)[C@@H](Cc2ccccc2)NC(=O)[C@@H](C(C)C)NC(=O)[C@H]2CCCN2C(=O)[C@@H](CC(C)C)NC1=O [Design D8.19, DPHE *DALA *LEU DPRO DLEU DLEU DPRO DVAL] (cyclo([NMeL][dP][dL][dL][dP][dV][dF][dNMeA])) | 3.45E-06 | 2.33E-06 | 2.88 ×10⁻⁶ cm/s |
| CC(C)C[C@@H]1C(=O)N[C@H](Cc2ccccc2)C(=O)N2CCC[C@@H]2C(=O)N2CCC[C@@H]2C(=O)N2CCC[C@H]2C(=O)N[C@H](C(C)C)C(=O)N(C)[C@@H](C)C(=O)N(C)[C@@H](C)C(=O)N(C)[C@H](CC(C)C)C(=O)N1C [Design D9.25, DVAL *ALA *ALA *DLEU *DLEU DPHE DPRO DPRO PRO] (cyclo([dV][NMeA][NMeA][dNMeL][dNMeL][dF][dP][dP]P)) | 2.32E-06 | 1.52E-06 | 2.19 ×10⁻⁶ cm/s |
| CC[C@@H](C)[C@H]1NC(=O)[C@H](CC(C)C)N(C)C(=O)[C@H]2CCCN2C(=O)[C@H](CC(C)C)NC(=O)[C@@H](Cc2ccccc2)N(C)C(=O)[C@H](CC(C)C)N(C)C(=O)[C@@H](C(C)C)NC(=O)[C@H](C)NC(=O)[C@H]2CCCN2C(=O)[C@@H]2CCCN2C1=O (single isomer, unassigned) [Design D10.60.p1, *LEU *DPHE LEU DPRO *LEU DILE PRO DPRO ALA DVAL] | 6.58E-07 | 1.13E-06 | 0.65 ×10⁻⁶ cm/s |
| CC[C@H](C)[C@@H]1NC(=O)[C@@H](Cc2ccccc2)NC(=O)[C@@H](C)NC(=O)[C@@H](C(C)C)NC(=O)[C@H](CCSC)NC(=O)[C@@H]2CCCN2C(=O)[C@H]2CCCN2C(=O)[C@@H]2CCCN2C(=O)[C@@H](C)N(C)C(=O)[C@@H](CC(C)C)N(C)C1=O [Design D10.45, DVAL DALA DPHE ILE *DLEU *DALA PRO DPRO PRO MET] (cyclo(M[dV][dA][dF]I[dNMeL][dNMeA]P[dP]P)) | 5.38E-07 | 3.72E-07 | 0.487 ×10⁻⁶ cm/s |
| CC[C@@H](C)[C@H]1NC(=O)[C@H](C(C)C)NC(=O)[C@H]2CCCN2C(=O)[C@@H]2CCCN2C(=O)[C@H](CC(C)C)N(C)C(=O)[C@H](C)N(C)C(=O)[C@@H](CC(C)C)N(C)C(=O)[C@H](C)NC(=O)[C@@H](Cc2ccccc2)NC(=O)[C@@H]2CCCN2C1=O [Design D10.25, DPHE ALA *DLEU *ALA *LEU PRO DPRO VAL DILE PRO] (cyclo(A[dNMeL][NMeA][NMeL]P[dP]V[dI]P[dF])) | 3.97E-07 | 4.39E-07 | 0.452 ×10⁻⁶ cm/s |
| CC(C)C[C@@H]1C(=O)N[C@@H](C)C(=O)N[C@H](CC(C)C)C(=O)N2CCC[C@H]2C(=O)N[C@H](C)C(=O)N2CCC[C@@H]2C(=O)N2CCC[C@H]2C(=O)N[C@H](C(C)C)C(=O)N[C@H](CC(C)C)C(=O)N(C)[C@H](CC(C)C)C(=O)N1C [Design D10.43, DALA DPRO PRO DVAL DLEU *DLEU *DLEU ALA DLEU PRO] (cyclo([dV][dL][dNMeL][dNMeL]A[dL]P[dA][dP]P)) | 1.81E-07 | 1.70E-07 | 0.161 ×10⁻⁶ cm/s |
| CC(C)[C@@H]1C(=O)N[C@@H](Cc2ccccc2)C(=O)N2CCC[C@H]2C(=O)N(C)[C@H](Cc2ccccc2)C(=O)N[C@H](C)C(=O)N2CCC[C@H]2C(=O)N1C (single isomer, unassigned) [Design D6.8.p1, *DPHE DALA PRO *DVAL PHE PRO] | 4.07e-06 cm/s | 3.58e-06 cm/s | 3.47 ×10⁻⁶ cm/s |
| CC[C@H](C)[C@@H]1NC(=O)[C@H](Cc2ccccc2)N(C)C(=O)[C@H](CC(C)C)N(C)C(=O)[C@@H](C(C)C)NC(=O)[C@@H](C)NC(=O)[C@@H]2CCCN2C(=O)[C@@H](CC(C)C)NC(=O)[C@@H]2CCCN2C(=O)[C@H](C)NC1=O [Design D9.6, PRO DALA DVAL *LEU *PHE ILE ALA PRO DLEU] | 1.38E-06 | 1.96E-06 | 1.63 ×10⁻⁶ cm/s |
| CSCC[C@H]1C(=O)N(C)[C@H](C)C(=O)N[C@H](CC(C)C)C(=O)N2CCC[C@@H]2C(=O)N2CCC[C@H]2C(=O)N[C@@H](CC(C)C)C(=O)N2CCC[C@H]2C(=O)N2CCC[C@@H]2C(=O)N[C@H](C(C)C)C(=O)N1C [Design D9.24, DPRO DVAL *MET *DALA DLEU DPRO PRO LEU PRO] (cyclo(LP[dP][dV][NMeM][dNMeA][dL][dP]P)) | 7.85E-08 | 8.51E-08 | 0.0869 ×10⁻⁶ cm/s |
| CC(C)C[C@@H]1C(=O)N[C@H](C)C(=O)N2CCC[C@H]2C(=O)N(C)[C@H](CC(C)C)C(=O)N[C@@H](C)C(=O)N(C)[C@@H](CC(C)C)C(=O)N(C)[C@H](C(C)C)C(=O)N[C@H](Cc2ccccc2)C(=O)N2CCC[C@@H]2C(=O)N2CCC[C@H]2C(=O)N1C [Design D10.18, DPRO PRO *DLEU DALA PRO *DLEU ALA *LEU *DVAL DPHE] (cyclo([dNMeL][dA]P[dNMeL]A[NMeL][dNMeV][dF][dP]P)) | 9.23E-08 | 1.49E-07 | 0.0948 ×10⁻⁶ cm/s |
| CC(C)C[C@@H]1NC(=O)[C@@H](CC(C)C)N(C)C(=O)[C@@H](CC(C)C)N(C)C(=O)[C@@H](CC(C)C)N(C)C(=O)[C@H](CC(C)C)NC(=O)[C@@H]2CCCN2C(=O)[C@H]2CCCN2C(=O)[C@H](Cc2ccccc2)NC1=O [Design D8.7, PHE DPRO PRO LEU *DLEU *DLEU *DLEU LEU] (cyclo(L[dNMeL][dNMeL][dNMeL]LF[dP]P)) | 1.94E-06 | 8.74E-07 | 1.27 ×10⁻⁶ cm/s |
